Measurements published in ChEMBL document CHEMBL5550205, “Discovery of a NCOA4 Degrader for Labile Iron-Dependent Ferroptosis Inhibition” (J Med Chem, 2024).
The source made the active and inactive calls. The calls are words filed in the database; no cut-off is given here. Residues, ends and D or L forms follow the SMILES beside them. *: point of attachment. Cbz = O=C(OCc1ccccc1)*

Biological target: von Hippel-Lindau disease tumor suppressor/Nuclear receptor coactivator 4 (Homo sapiens, UniProt P40337+Q13772)
Assay: PROTAC activity at NCOA4/VHL in human HeLa cells assessed as induction of NCOA4 degradation at 4 uM measured for 24 hrs by immunoprecipitation analysis
Assay type: cell-based

Chain of von Hippel-Lindau disease tumor suppressor/Nuclear receptor coactivator 4 (P40337 whole entry, looked up): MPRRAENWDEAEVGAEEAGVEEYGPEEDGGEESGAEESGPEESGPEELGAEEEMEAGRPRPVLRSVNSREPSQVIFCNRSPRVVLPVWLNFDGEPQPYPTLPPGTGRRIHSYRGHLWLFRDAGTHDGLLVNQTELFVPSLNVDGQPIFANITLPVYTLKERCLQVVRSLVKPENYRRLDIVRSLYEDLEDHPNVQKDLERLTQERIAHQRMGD
Chain of von Hippel-Lindau disease tumor suppressor/Nuclear receptor coactivator 4 (Q13772 whole entry, looked up): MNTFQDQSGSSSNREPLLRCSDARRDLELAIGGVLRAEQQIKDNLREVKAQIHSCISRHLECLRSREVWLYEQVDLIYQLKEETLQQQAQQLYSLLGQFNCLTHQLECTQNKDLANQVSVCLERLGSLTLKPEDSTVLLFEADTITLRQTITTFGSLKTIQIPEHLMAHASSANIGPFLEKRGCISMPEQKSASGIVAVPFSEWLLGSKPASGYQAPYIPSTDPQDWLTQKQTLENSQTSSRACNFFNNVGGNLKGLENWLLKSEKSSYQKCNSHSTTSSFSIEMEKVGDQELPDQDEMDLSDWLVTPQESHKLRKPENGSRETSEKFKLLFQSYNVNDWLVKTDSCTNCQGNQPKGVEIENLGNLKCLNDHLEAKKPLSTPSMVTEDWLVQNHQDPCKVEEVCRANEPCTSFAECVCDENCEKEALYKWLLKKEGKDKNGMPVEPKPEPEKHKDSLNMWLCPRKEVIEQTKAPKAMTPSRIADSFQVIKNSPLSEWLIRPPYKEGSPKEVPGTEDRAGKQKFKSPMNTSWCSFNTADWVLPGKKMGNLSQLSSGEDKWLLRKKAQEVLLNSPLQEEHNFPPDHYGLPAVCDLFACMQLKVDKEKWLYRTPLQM

- Activity: Active
SMILES: CC(C)C[C@@H](C=O)NC(=O)[C@H](CC(C)C)NC(=O)[C@H](CC(C)C)NC(=O)OCc1ccccc1 (Cbz-Leu-Leu-Leu-aldehyde)
